ChEMBL document CHEMBL4840352 (J Med Chem, 2021)
pIC50: −log10 of the molar value.

Columns and labels:
MOLM-13 = assay: Antiproliferative activity against human MOLM-13 cells incubated for 48 hrs by CCK-8 assay; type: functional, cell-based; conditions: MOLM-13, 48 h
MV4-11 = assay: Antiproliferative activity against human MV4-11 cells incubated for 48 hrs by CCK-8 assay; type: functional, cell-based; conditions: MV4-11, 48 h

Q: What does the source list for Nc1c(-c2nc3cc(N4CCN(C(=O)CCCCC#Cc5cccc6c5C(=O)N(C5CCC(=O)NC5=O)C6=O)CC4)ccc3[nH]2)c(=O)[nH]c2cccc(F)c12 (stereo unspecified)?
A: pIC50 (MOLM-13): 6.51; pIC50 (MV4-11): 6.20

Q: With Nc1c(-c2nc3cc(N4CCN(CCCCCCCC(=O)Nc5cccc6c5C(=O)N(C5CCC(=O)NC5=O)C6=O)CC4)ccc3[nH]2)c(=O)[nH]c2cccc(F)c12 (stereo unspecified) as the compound, how does the pIC50 (MOLM-13) read?
A: < 6.00

Q: And the pIC50 (MV4-11)?
A: < 6.00

Q: What does the source list for Nc1c(-c2nc3cc(N4CCN(C(=O)CCC#Cc5cccc6c5C(=O)N(C5CCC(=O)NC5=O)C6=O)CC4)ccc3[nH]2)c(=O)[nH]c2cccc(F)c12 (stereo unspecified)?
A: pIC50 (MOLM-13): < 6.00; pIC50 (MV4-11): 6.03

Q: With Cc1ncsc1-c1ccc(CNC(=O)[C@H]2C[C@H](O)CN2C(=O)[C@H](NC(=O)CCCCC(=O)N2CCN(c3ccc4[nH]c(-c5c(N)c6c(F)cccc6[nH]c5=O)nc4c3)CC2)C(C)(C)C)cc1 as the compound, how does the pIC50 (MOLM-13) read?
A: 6.73

Q: What about the pIC50 (MV4-11) of the same compound?
A: 6.38

Q: Which results are given for Nc1c(-c2nc3cc(N4CCN(CCCCCCC(=O)Nc5cccc6c5CN(C5CCC(=O)NC5=O)C6=O)CC4)ccc3[nH]2)c(=O)[nH]c2cccc(F)c12 (stereo unspecified)?
A: pIC50 (MOLM-13): < 6.00; pIC50 (MV4-11): < 6.00

Q: What does the source list for Nc1c(-c2nc3cc(N4CCN(CCC(=O)Nc5cccc6c5C(=O)N(C5CCC(=O)NC5=O)C6=O)CC4)ccc3[nH]2)c(=O)[nH]c2cccc(F)c12 (stereo unspecified)?
A: pIC50 (MOLM-13): < 6.00; pIC50 (MV4-11): < 6.00

Q: What does the source list for Nc1c(-c2nc3cc(N4CCN(CCCCCCC(=O)Nc5cccc6c5C(=O)N(C5CCC(=O)NC5=O)C6=O)CC4)ccc3[nH]2)c(=O)[nH]c2cccc(F)c12 (stereo unspecified)?
A: pIC50 (MOLM-13): < 6.00; pIC50 (MV4-11): 6.38

Q: How did the pIC50 (MOLM-13) turn out when Nc1c(-c2nc3cc(N4CCN(C(=O)CCCCCCNc5cccc6c5C(=O)N(C5CCC(=O)NC5=O)C6=O)CC4)ccc3[nH]2)c(=O)[nH]c2cccc(F)c12 (stereo unspecified) was run?
A: 6.89

Q: And the pIC50 (MV4-11)?
A: 6.38
